Reference: patent publication US7396837B2, “Antitumoral analogs of lamellarins” (Pharma Mar, S.A.U., priority 2002, dated 2008)

Key:
Assay type in all cases: cell-based
HT-29 = assay: SRB colorimetric cell growth inhibition assay, HT-29; details: Homo sapiens, HT-29, HT-29; for GI50: GI=growth inhibition, read-out: GI50 HT-29; for CC50: cell killing (cytotoxic effect), read-out: LC50 HT-29; for IC (TGI): total growth inhibition (cytostatic effect), read-out: TGI HT-29
Excerpt: (§1) The finality of these assays is to interrupt the growth of an “in vitro” tumor cell culture by means a continued exhibition of the cells to the sample to be testing.
(§2) A colorimetric type of assay, using sulforhodamine B (SRB) reaction has been adapted for a quantitative measurement of cell growth and viability (following the technique described by P. A. Skehan, et al., J. Natl. Cancer Inst. 1990, 82, 1107-1112).
(§3) This form of assay employs 96 well cell culture microplates of 9 mm diameter (T. Mosmann et al., J. of Immunological Methods 1983, 65, 55-63; G. T. Faircloth et al., J. of Tissue and Culture Methods 1988, 11, 201-205).
(§4) Most of the cell lines are obtained from American Type Culture Collection (ATCC) derived from different human cancer types.
(§5) The values for mean +/− SD of data from triplicate wells are calculated. Some parameters for cellular responses can be calculated: GI=growth inhibition, TGI=total growth inhibition (cytostatic effect) and LC=cell killing (cytotoxic effect).

HeLa-APL = assay: SRB colorimetric cell growth inhibition assay, HeLa-APL (aplidine resistant); details: Homo sapiens, HELA-APL; for GI50: GI=growth inhibition, read-out: GI50 HELA-APL; for CC50: cell killing (cytotoxic effect), read-out: LC50 HELA-APL; for IC (TGI): total growth inhibition (cytostatic effect), read-out: TGI HELA-APL
Excerpt: as §1, §2, §3, §4, §5

SK-BR-3 = assay: SRB colorimetric cell growth inhibition assay, SK-BR-3; details: Homo sapiens, SK-BR-3, SK-BR-3; for GI50: GI=growth inhibition, read-out: GI50 SK-BR-3; for CC50: cell killing (cytotoxic effect), read-out: LC50 SK-BR-3; for IC (TGI): total growth inhibition (cytostatic effect), read-out: TGI SK-BR-3
Excerpt: as §1, §2, §3, §4, §5

DU-145 = assay: SRB colorimetric cell growth inhibition assay, DU-145; details: Homo sapiens, DU-145, DU-145; for GI50: GI=growth inhibition, read-out: GI50 DU-145; for CC50: cell killing (cytotoxic effect), read-out: LC50 DU-145; for IC (TGI): total growth inhibition (cytostatic effect), read-out: TGI DU-145
Excerpt: as §1, §2, §3, §4, §5

HeLa = assay: SRB colorimetric cell growth inhibition assay, HeLa; details: Homo sapiens, HeLa; for GI50: GI=growth inhibition, read-out: GI50 HELA; for CC50: cell killing (cytotoxic effect), read-out: LC50 HELA; for IC (TGI): total growth inhibition (cytostatic effect), read-out: TGI HELA
Excerpt: as §1, §2, §3, §4, §5

K-562 = assay: SRB colorimetric cell growth inhibition assay, K-562; details: Homo sapiens, K562, K-562; for GI50: GI=growth inhibition, read-out: GI50 K-562; for CC50: cell killing (cytotoxic effect), read-out: LC50 K-562; for IC (TGI): total growth inhibition (cytostatic effect), read-out: TGI K-562
Excerpt: as §1, §2, §3, §4, §5

IGROV-ET = assay: SRB colorimetric cell growth inhibition assay, IGROV-ET (ET-743 resistant); details: Homo sapiens, IGROV-ET; for GI50: GI=growth inhibition, read-out: GI50 IGROV-ET; for CC50: cell killing (cytotoxic effect), read-out: LC50 IGROV-ET; for IC (TGI): total growth inhibition (cytostatic effect), read-out: TGI IGROV-ET
Excerpt: as §1, §2, §3, §4, §5

PANC-1 = assay: SRB colorimetric cell growth inhibition assay, PANC-1; details: Homo sapiens, PANC-1, PANC-1; for GI50: GI=growth inhibition, read-out: GI50 PANC-1; for CC50: cell killing (cytotoxic effect), read-out: LC50 PANC-1; for IC (TGI): total growth inhibition (cytostatic effect), read-out: TGI PANC-1
Excerpt: as §1, §2, §3, §4, §5

LoVo-Dox = assay: SRB colorimetric cell growth inhibition assay, LoVo-Dox (MDR); details: Homo sapiens, LOVO-DOX; for GI50: GI=growth inhibition, read-out: GI50 LOVO-DOX; for CC50: cell killing (cytotoxic effect), read-out: LC50 LOVO-DOX; for IC (TGI): total growth inhibition (cytostatic effect), read-out: TGI LOVO-DOX
Excerpt: as §1, §2, §3, §4, §5

LNCaP = assay: SRB colorimetric cell growth inhibition assay, LNCaP; details: Homo sapiens, LNCaP, LN-caP; for GI50: GI=growth inhibition, read-out: GI50 LN-caP; for CC50: cell killing (cytotoxic effect), read-out: LC50 LN-caP; for IC (TGI): total growth inhibition (cytostatic effect), read-out: TGI LN-caP
Excerpt: as §1, §2, §3, §4, §5

LoVo = assay: SRB colorimetric cell growth inhibition assay, LoVo; details: Homo sapiens, LoVo; for GI50: GI=growth inhibition, read-out: GI50 LOVO; for CC50: cell killing (cytotoxic effect), read-out: LC50 LOVO; for IC (TGI): total growth inhibition (cytostatic effect), read-out: TGI LOVO
Excerpt: as §1, §2, §3, §4, §5

A-549 = assay: SRB colorimetric cell growth inhibition assay, A-549; details: Homo sapiens, A549, A-549; for GI50: GI=growth inhibition, read-out: GI50 A-549; for CC50: cell killing (cytotoxic effect), read-out: LC50 A-549; for IC (TGI): total growth inhibition (cytostatic effect), read-out: TGI A-549
Excerpt: as §1, §2, §3, §4, §5

IGROV = assay: SRB colorimetric cell growth inhibition assay, IGROV; details: Homo sapiens, IGROV; for GI50: GI=growth inhibition, read-out: GI50 IGROV; for CC50: cell killing (cytotoxic effect), read-out: LC50 IGROV; for IC (TGI): total growth inhibition (cytostatic effect), read-out: TGI IGROV
Excerpt: as §1, §2, §3, §4, §5

SK-MEL-28 = assay: SRB colorimetric cell growth inhibition assay, SK-MEL-28; details: Homo sapiens, SK-MEL-28, MEL-28
Excerpt: as §1, §2, §3, §4, §5

COc1cc(-c2c3n(c4c(=O)[nH]c5cc(O)c(OC)cc5c24)CCc2cc(O)c(OC)cc2-3)ccc1O [Compound 4]
GI50 (HT-29): 2.5 µM
CC50 (HT-29): 14.6 µM
IC (TGI) (HT-29): 6.03 µM
GI50 (HeLa-APL): 0.238 µM
CC50 (HeLa-APL): 1.95 µM
IC (TGI) (HeLa-APL): 0.681 µM
GI50 (SK-BR-3): 0.338 µM
CC50 (SK-BR-3): 1.47 µM
IC (TGI) (SK-BR-3): 0.703 µM
GI50 (DU-145): 0.218 µM
CC50 (DU-145): 2.14 µM
IC (TGI) (DU-145): 0.667 µM
GI50 (HeLa): 0.338 µM
CC50 (HeLa): 1.39 µM
IC (TGI) (HeLa): 0.685 µM
GI50 (K-562): 0.396 µM
CC50 (K-562): 4.44 µM
IC (TGI) (K-562): 0.937 µM
GI50 (IGROV-ET): 0.599 µM
CC50 (IGROV-ET): 13.1 µM
IC (TGI) (IGROV-ET): 1.64 µM
GI50 (PANC-1): 0.48 µM
CC50 (PANC-1): 5.99 µM
IC (TGI) (PANC-1): 1.34 µM
GI50 (LoVo-Dox): 2 µM
CC50 (LoVo-Dox): 17.8 µM
IC (TGI) (LoVo-Dox): 5.95 µM
GI50 (LNCaP): 0.332 µM
CC50 (LNCaP): 1.85 µM
IC (TGI) (LNCaP): 0.785 µM
GI50 (LoVo): 0.468 µM
CC50 (LoVo): 4.36 µM
IC (TGI) (LoVo): 1.08 µM
GI50 (A-549): 0.543 µM
CC50 (A-549): 10 µM
IC (TGI) (A-549): 1.21 µM
GI50 (IGROV): 0.402 µM
CC50 (IGROV): 11.3 µM
IC (TGI) (IGROV): 2 µM

COc1cc(-c2c3c4cc(OC)c(OC(=O)[C@H](C)NC(=O)[C@H](C)N)cc4oc(=O)c3n3ccc4c(OC(=O)[C@H](C)NC(=O)[C@H](C)N)c(OC)c(OC)cc4c23)ccc1OC(=O)[C@H](C)NC(=O)[C@H](C)N [Compound 5]
GI50 (HT-29): 1.7 µM
CC50 (HT-29): 6.16 µM
IC (TGI) (HT-29): 3.24 µM
GI50 (HeLa-APL): 0.31 µM
CC50 (HeLa-APL): 5.55 µM
IC (TGI) (HeLa-APL): 1.71 µM
GI50 (SK-BR-3): 0.241 µM
CC50 (SK-BR-3): 3.54 µM
IC (TGI) (SK-BR-3): 0.595 µM
GI50 (DU-145): 0.0356 µM
CC50 (DU-145): 0.575 µM
IC (TGI) (DU-145): 0.119 µM
GI50 (HeLa): 0.124 µM
CC50 (HeLa): 3.1 µM
IC (TGI) (HeLa): 1.12 µM
GI50 (K-562): 0.077 µM
CC50 (K-562): 7.4 µM
IC (TGI) (K-562): 1.1 µM
GI50 (SK-MEL-28; GI=growth inhibition, read-out: GI50 MEL-28): 0.0629 µM
CC50 (SK-MEL-28; cell killing (cytotoxic effect), read-out: LC50 MEL-28): 1.12 µM
IC (TGI) (SK-MEL-28; total growth inhibition (cytostatic effect), read-out: TGI MEL-28): 0.249 µM
GI50 (IGROV-ET): 0.212 µM
CC50 (IGROV-ET): 6.09 µM
IC (TGI) (IGROV-ET): 1.06 µM
GI50 (PANC-1): 0.418 µM
CC50 (PANC-1): 4.51 µM
IC (TGI) (PANC-1): 1.64 µM
GI50 (LoVo-Dox): 0.409 µM
CC50 (LoVo-Dox): 3.4 µM
IC (TGI) (LoVo-Dox): 1.1 µM
GI50 (LNCaP): 0.223 µM
CC50 (LNCaP): 3.62 µM
IC (TGI) (LNCaP): 1.05 µM
GI50 (LoVo): 0.345 µM
CC50 (LoVo): 4.14 µM
IC (TGI) (LoVo): 1.06 µM
GI50 (A-549): 0.121 µM
CC50 (A-549): 4.65 µM
IC (TGI) (A-549): 1.02 µM
GI50 (IGROV): 0.247 µM
CC50 (IGROV): 4.54 µM
IC (TGI) (IGROV): 0.855 µM
